Laboratory results: patent publication US20260297060A1, “COMPOUNDS FOR THE DEGRADATION OF MUTANT BRAF” (C4 THERAPEUTICS, INC., priority 2023, published 2026)
Where two headings read alike, the source gives them in different places.

Experiments:
[1] = Example 7 pharmacokinetics assay for PKPD study (plasma, tumor, liver); type: in vivo, BALB/c nude mice; settings: mouse, po, 10 mg/kg, p.o., single dose
Procedure: For the PK and PD study, agents were administered to BALB/c nude mice bearing A375 human melanoma xenografts tumors. Dabrafenib, Compound 141, Compound 118, Compound 156, and Compound 180 were dosed p.o. once on day 1. Known BRAF inhibitor Dabrafenib was used as a positive control. Dabrafenib was dosed at 100 mg/kg. Compound 141, Compound 118, Compound 156, and Compound 180 were dosed at 10 mg/kg.
(§1) The plasma samples were collected at predetermined time points for PK analysis. The mice were euthanized at predetermined time points post the treatment. The blood samples were collected into the 1.5 mL Eppendorf tubes containing 15 μL of 0.5 M EDTA-K2. And then the anticoagulant blood samples were centrifuged at 2,500 g at 4° C. for 15 minutes. The plasma samples were separated into 2 aliquots. The 1st was used for PK analysis, and the 2nd served as backup. The samples were stored at −80° C. before bioanalysis.
The tumor samples were collected at predetermined time points for PK and WB analysis. The tumor was dissected out and split into 3 parts. The 1st part was used for PK analysis, the 2nd part was used for WB analysis and the last one served as backup for study. The samples were transferred into pre-labeled tubes and quickly froze in liquid nitrogen within 2 minutes after dissection. The samples were stored at −80° C. before bioanalysis.
(§2) Liver samples were collected at predetermined time points for PK analysis. The left lobe of the liver was dissected out and split into 2 parts. The 1st part was used for PK analysis and the 2nd part served as the backup for the study. The samples were transferred into pre-labeled tubes and quickly froze in liquid nitrogen within 2 minutes after dissection. The samples were stored at −80° C. before bioanalysis.
The harvested plasma and liver samples were processed for pharmacokinetics analysis by LC-MS/MS with a concentration range of 0.500-1000 ng/mL for Dabrafenib, Compound 118 and Compound 180 in plasma, 0.100~200 ng/ml for Dabrafenib in Liver and tumor homogenate, 50.0~50,000 ng/mL for Compound 141 in plasma and Liver homogenate, 1.00-1000 ng/ml for Compound 141 in tumor homogenate, 2.00~2000 ng/mL for Compound 118 and Compound 180 in Liver and 0.200~200 ng/ml in tumor homogenate, 1.00~2000 ng/mL for Compound 156 in plasma, 0.500-1000 ng/ml in liver and 0.500-1,000 ng/ml in tumor homogenate.

[2] = Example 9 pharmacokinetics assay for efficacy study Part I and II (plasma, liver); type: in vivo, BALB/c nude mice; settings: mouse, po, 10 mg/kg, p.o., BID × 14 days, 6 h following treatment, ± SEM
Procedure: For efficacy study Part I, agents were tested in the A375 human melanoma xenografts. Compound 218 and Compound 157 were administered to BALB/c nude mice bearing A375 xenografts from day 0 and dosed twice a day (BID) for 14 days. Compound 218 and Compound 157 were dosed at 10 mg/kg via p.o.. Dabrafenib was administered from day 1 daily (QD) for 14 days and dosed at 100 mg/kg via p.o..
For efficacy study Part II, agents were tested in the A375 human melanoma xenografts model. Compound 133, Compound 144 and Compound 198 were administered to BALB/c nude mice bearing A375 xenografts from day 0 and dosed twice a day (BID) for 14 days. Compound 133, Compound 144 and Compound 198 were dosed at 10 mg/kg via p.o..
as §1, §2
The harvested plasma and liver samples were processed for pharmacokinetics analysis by LC-MS/MS with a concentration range of 1.00-1,000 ng/mL for Dabrafenib in plasma and liver homogenate, 10.0-10,000 ng/mL for Compound 218, Compound 157, Compound 133, Compound 144 and Compound 198 in plasma and liver homogenate.

[3] = liver, read-out: Concentration in Liver (mean ± SEM)
[4] = plasma, read-out: Concentration in Plasma (mean ± SEM)
[5] = tumor, read-out: Concentration in Tumor (mean ± SEM)
[6] = liver, read-out: Mean Concentration in Liver
[7] = plasma, read-out: Mean Concentration in Plasma

Compound	concentration at 6 h [1, 3]	concentration at 12 h [1, 3]	concentration at 1 h [1, 4]	concentration at 6 h [1, 4]	concentration at 12 h [1, 4]	concentration at 24 h [1, 4]	concentration at 1 h [1, 5]	concentration at 6 h [1, 5]	concentration at 12 h [1, 5]	concentration at 24 h [1, 5]	concentration at 6 h [2, 6]	concentration at 6 h [2, 7]
CCN(C)S(=O)(=O)Nc1ccc(F)c(Oc2ccc3ncc(C4CC5(CCN(C6CCC(c7cc8c(cc7F)c(N7CCC(=O)NC7=O)nn8C)CC6)CC5)C4)nc3c2)c1C#N (single isomer, unassigned) [Compound 180, 7-[2-cyano-3-[[ethyl(methyl)sulfamoyl]amino]-6-fluoro-phenoxy]-2-[7-[4-[3-(2,4-dioxohexahydropyrimidin-1-yl)-5-fluoro-1-methyl-indazol-6-yl]cyclohexyl]-7-azaspiro[3.5]nonan-2-yl]quinoxaline]	712 ± 282 ng/g	247 ± 33.7 ng/g	5110 ± 867 ng/mL	260 ± 84.3 ng/mL	155 ± 27.8 ng/mL	1.54 ± 0.588 ng/mL	680 ± 72.8 ng/g	245 ± 34.7 ng/g	82.6 ± 21.8 ng/g	3.89 ng/g		
CCN(C)S(=O)(=O)Nc1ccc(F)c(Oc2ccc3ncc(OCC4CCN(C5CCC(c6cc7c(cc6F)c(N6CCC(=O)NC6=O)nn7C)CC5)CC4)nc3c2)c1C#N (single isomer, unassigned) [Compound 118, 7-[2-cyano-3-[[ethyl(methyl)sulfamoyl]amino]-6-fluoro-phenoxy]-2-[[1-[4-[3-(2,4-dioxohexahydropyrimidin-1-yl)-5-fluoro-1-methyl-indazol-6-yl]cyclohexyl]-4-piperidyl]methoxy]quinoxaline]	103000 ± 9270 ng/g	111000 ± 12000 ng/g	1240 ± 90.2 ng/mL	1500 ± 574 ng/mL	985 ± 234 ng/mL	595 ± 81.8 ng/mL	345 ± 57.4 ng/g	855 ± 257 ng/g	509 ± 101 ng/g	254 ± 7.8 ng/g		
CCN(C)S(=O)(=O)Nc1ccc(F)c(Oc2ccc3ncc(OC4CC5(CCN(C6CCC(c7cc8c(cc7F)c(N7CCC(=O)NC7=O)nn8C)CC6)CC5)C4)nc3c2)c1C#N (single isomer, unassigned) [Compound 218, 7-[2-cyano-3-[[ethyl(methyl)sulfamoyl]amino]-6-fluoro-phenoxy]-2-[[7-[4-[3-(2,4-dioxohexahydropyrimidin-1-yl)-5-fluoro-1-methyl-indazol-6-yl]cyclohexyl]-7-azaspiro[3.5]nonan-2-yl]oxy]quinoxaline]											5640 ± 588 ng/g	2270 ± 201 ng/mL
CCN(C)S(=O)(=O)Nc1ccc(F)c(Oc2ccc3ncn(C4CC5(CCN(C6CC7(C6)CN(c6cc8c(cc6F)c(N6CCC(=O)NC6=O)nn8C)C7)CC5)C4)c(=O)c3c2)c1C#N (centres unmarked) [Compound 141, 6-[2-cyano-3-[[ethyl(methyl)sulfamoyl]amino]-6-fluoro-phenoxy]-3-[7-[2-[3-(2,4-dioxohexahydropyrimidin-1-yl)-5-fluoro-1-methyl-indazol-6-yl]-2-azaspiro[3.3]heptan-6-yl]-7-azaspiro[3.5]nonan-2-yl]-4-oxo-quinazoline]	9730 ± 1380 ng/g	3050 ± 618 ng/g	17700 ± 924 ng/mL	10700 ± 1420 ng/mL	2530 ± 365 ng/mL	219 ± 74.6 ng/mL	2120 ± 109 ng/g	2230 ± 114 ng/g	818 ± 121 ng/g	75.4 ± 24.3 ng/g		
CCN(C)S(=O)(=O)Nc1ccc(F)c(Oc2ccc3ncn(C4CC5(CCN(C6CCN(c7cc8c(cc7F)c(N7CCC(=O)NC7=O)nn8C)CC6)CC5)C4)c(=O)c3c2)c1C#N [Compound 156, 6-[2-cyano-3-[[ethyl(methyl)sulfamoyl]amino]-6-fluoro-phenoxy]-3-[7-[1-[3-(2,4-dioxohexahydropyrimidin-1-yl)-5-fluoro-1-methyl-indazol-6-yl]-4-piperidyl]-7-azaspiro[3.5]nonan-2-yl]-4-oxo-quinazoline]	1460 ± 170 ng/g	262 ± 100 ng/g	4130 ± 545 ng/mL	805 ± 85.2 ng/mL	111 ± 46.3 ng/mL	1.78 ± 0.554 ng/mL	758 ± 66.9 ng/g	295 ± 30.3 ng/g	102 ± 35.6 ng/g	33.5 ng/g		
CO[C@H]1CCN(S(=O)(=O)Nc2ccc(F)c(Oc3ccc4ncn([C@H]5COC6(CCN(C7CC8(C7)CN(c7cc9c(cc7F)c(N7CCC(=O)NC7=O)nn9C)C8)CC6)C5)c(=O)c4c3)c2C#N)C1 [Compound 157, (3S)-N-[2-cyano-3-[3-[(3R)-8-[2-[3-(2,4-dioxohexahydropyrimidin-1-yl)-5-fluoro-1-methyl-indazol-6-yl]-2-azaspiro[3.3]heptan-6-yl]-1-oxa-8-azaspiro[4.5]decan-3-yl]-4-oxo-quinazolin-6-yl]oxy-4-fluoro-phenyl]-3-methoxy-pyrrolidine-1-sulfonamide]											2450 ± 217 ng/g	12500 ± 745 ng/mL
